# According to US20030161893A1, “PTPase inhibitors and methods of using the same” (priority 2001, published 2003):
# “And” between values parts separate entries of the source, which are not always exact repeats. Equal entries are not always repeated.
# How the values were obtained:
# [1] = tested on: NB4 cells; assay: NB4 cell growth (MTT), cell cycle and Annexin V; type: cell-based, human; details: 3 days; sodium stibogluconate 250 μg/ml, ATRA 1 μM
# Description: The NB4 cell line (Lanotte et al., Blood 77, 1080 (1991)) was a gift from Dr. Dan Lindner of the Cleveland Clinic Foundation. […] and U937 cell lines were purchased from American Type Culture Collection (Rockville, Md.). These human […] cell lines were maintained in RPMI 1640 medium supplemented with 10% fetal calf serum (FCS). For cell proliferation assays, cells were cultured at 37° C. in 10% FCS medium containing various amounts of sodium stibogluconate for 6 days. The cell numbers in the cultures were determined by an MTT assay as described previously in Mosmann, J. Imunol. Methods 65, 55 (1983).
# The cell cycle was analyzed by flow cytometry after 3 days of culture of NB4 cells in the absence or presence of sodium stibogluconate (250 μg/ml) or ATRA (1 μM). Briefly, the cells were fixed in cold ethanol and incubated for 30 minutes at 4° C. in the dark with a solution of […] propidium iodide, 1 mg/ml RNase and 0.1% NP-40. Analysis was performed immediately after staining using the CELLFIT program (Becton Dickinson, Mountain View, Calif.).
# Annexin V staining of exposed membrane phospholipid phosphatidylserine (PS) was done using the Annexin V assay kit (Pharmingen, San Diego, Calif.). Briefly, NB4 cells were cultured in the 10% FCS RPMI 1640 medium in the absence or presence of sodium stibogluconate (250 μg/ml) or ATRA (1 μM) for 3 days. Cells were then washed in PBS twice and stained in binding buffer (10 mM Hepes, pH 7.4; 140 mM NaCl; 2.5 mM CaCl2) containing Annexin V-FITC and propidium iodide for 15 min. The reaction was stopped by adding 10 volumes of binding buffer and analyzed by FACS (Becton Dickinson Facsvantage).
# [2] = tested on: HL-60 cells; assay: HL-60 cell differentiation (NBT reduction); type: cell-based, human; details: day 6
# Description: (§1) Differentiation of AML cell lines was assessed by their ability to produce superoxide as measured by reduction of NBT to formazan and by analysis of expression of CD11b surface marker by flow cytometry. For NBT reduction, each cell suspension was mixed with an equal volume of solution containing 1 mg/ml of NBT (Sigma) and 2.5 μg/ml of TPA for 30 minutes at 37° C. After incubation, cells containing the purple formazan deposits and cells devoid of NBT-reducing activity (white cells) in each sample were determined by counting 200 cells under microscope. Data is expressed as a percentage based on the following ratio: purple cells/purple+white cells. For analysis of cell surface antigens, cells were exposed to phycoerythrin (PE)-conjugated murine anti-human CD11b (DAKO Corp., Carpinteria, Calif.). Analysis of fluorescence was performed on a FACScan flow cytometer (Beckton Dickinson, Mountain View, Calif.).
# [3] = tested on: U937 cells; assay: U937 cell differentiation (NBT reduction); type: cell-based, human; details: day 6
# Description: as §1
# [4] = target: T1, SHP-1 (Mus musculus, UniProt P29351); assay: In vitro PTPase assay, GST/SHP-1 fusion protein; type: biochemical; details: 3-4 μg/ml or 10-100 μg/ml
# T1 construct: made in house
# Description: In vitro PTPase activities were measured using the commercial protein tyrosine phosphatase assay kit (Upstate Biotechnology, Inc. (“UBI”)) following established procedure known to one of skill in the art. […] 100 μl of Malachite Green solution was added and incubated for 5 minutes, and the absorbance at 660 nm was measured after 5 minutes.
# The beads were then either subjected to in vitro PTPase assays or washed 3 times in Tris buffer then subjected to in vitro PTPase assays.
# Briefly, individual PTPases (0.1 μg/reaction) in 50 μL of PTPase buffer (50 mM Tris, pH 7.4) were incubated at 22° C. for 10 minutes or as indicated in the absence or presence of inhibitory compounds. […] […] […] Relative PTPase activities were calculated based on the formula: (PTPase activity in the presence of an inhibitory compound/PTPase activity in the absence of the compound)×100%. To assess the reversibility of PTPase inhibition, GST fusion proteins of the PTPases bound on glutathione beads (Pharmacia) were pre-incubated with cold Tris buffer (50 mM Tris, pH 7.0) or Tris buffer containing the inhibitor at 4° C. for 30 minutes. The beads were then washed three times in cold Tris buffer or not washed prior to subjecting to in vitro PTPase assays.
# [5] = tested on: WM9 cells; assay: Cell proliferation assay (MTT), WM9 melanoma cells; type: cell-based, human
# Description: For cell proliferation assays, cells were grown in 10% FCS culture medium containing various amounts of IFNs and/or sodium stibogluconate in 96 well plates and cultured at 37° C. for 3 or 6 days as indicated. The numbers of viable cells in proliferation assays were determined by MTT assays as described in Phatak et al., J. Immunol. 167, 3391 (2001).
# Dose response curves were generated for each drug alone, and also the combinations. Median effect plots were generated for IFNs alone, sodium stibogluconate alone, and the combination. The combination index (CI) was determined and plotted vs. fraction affected (FA). Data were analyzed in both modes, mutually exclusive and mutually nonexclusive. The interaction between two mutually nonexclusive drugs is described by the Equation CI=D1/D×1+D2/D×2+D1D2/D×1D×2, where D×1 and D×2 are the doses of drug 1 and drug 2 that are required to inhibit growth×%. […] When CI<1, drugs are synergistic, when CI=1, drugs are additive, and when CI>1, drugs are antagonistic.
# [6] = target: T2, PRL-1 (Homo sapiens, UniProt Q93096); assay: In vitro PTPase assay, recombinant PRL-1; type: biochemical; details: 0.1-100 μg/ml
# T2 construct: cDNAs of human PRL-1, PRL-2 and PRL-3 coding region were derived by RT-PCR from H9 cells; made in house; host or cells: DH5a bacteria (E. coli)
# Text: (§2) Sodium stibogluconate, suramin, sodium orth ovanadate and GST fusion protein of SHP-1 have been described previously (Pathak et al., J. Imumol. 167, 3391 (2001)). Meglumine antimonate was obtained from Aventis. cDNAs of human PRL-1, PRL-2 and PRL-3 coding region were derived by RT-PCR from H9 cells (Safai, et al., Lancet 1, 1438 (1984)) and inserted in frame into the pGEX vector. cDNA of PRL-1R86 was generated by recombinant DNA technique using PRL-1 cDNA as template following established procedures (Jiao, et al., Mol. Cell. Biol. 16, 6985 (1996)). […]
# (§3) In vitro PTPase assays were used to determine the effects of compounds on recombinant PTPases, following established procedures using a synthetic phosphotyrosine peptide or DiFMUP as the substrate (Pathak et al., J. Imumol. 167, 3391 (2001)). […] PTPase activity of individual reactions was measured by adding 100 μL of malachite green solution (UBI) and then quantifying the amounts of free phosphate cleaved by the PTPase from the peptide substrate by spectrometry (OD660 nm). […] Relative PTPase activities were calculated based on the formula: (PTPase activity in the presence of an inhibitory compound/PTPase activity in the absence of the compound)×100%. […]
# [7] = target: T3, PRL-2 (Homo sapiens, UniProt Q12974); assay: In vitro PTPase assay, recombinant PRL-2; type: biochemical
# T3 construct: cDNAs of human PRL-1, PRL-2 and PRL-3 coding region were derived by RT-PCR from H9 cells; made in house; host or cells: DH5a bacteria (E. coli)
# Text: as §2, §3
# [8] = target: T4, PRL-3 (Homo sapiens, UniProt O75365); assay: In vitro PTPase assay, recombinant PRL-3; type: biochemical; details: 0.1-100 μg/ml
# T4 construct: cDNAs of human PRL-1, PRL-2 and PRL-3 coding region were derived by RT-PCR from H9 cells; made in house; host or cells: DH5a bacteria (E. coli)
# Text: Sodium stibogluconate, suramin, sodium orth ovanadate and GST fusion protein of SHP-1 have been described previously (Pathak et al., J. Imumol. 167, 3391 (2001)). Meglumine antimonate was obtained from Aventis. cDNAs of human PRL-1, PRL-2 and PRL-3 coding region were derived by RT-PCR from H9 cells (Safai, et al., Lancet 1, 1438 (1984)) and inserted in frame into the pGEX vector. cDNA of PRL-1R86 was generated by recombinant DNA technique using PRL-1 cDNA as template following established procedures (Jiao, et al., Mol. Cell. Biol. 16, 6985 (1996)). GST fusion proteins of the PRL phosphatases were prepared from DH5a bacteria transformed with the pGEX fusion protein constructs as described previously (Yi, et al., Mol. Cell. Biol. 12, 836 (1992)). cDNAs encoding the PRLs tagged at the N-termini with the Flag epitope (Castrucci, et al., J. Virol. 66, 4647 (1992)) were generated via recombinant DNA technique, sequenced to confirm their identities and cloned into the pBabepuro vector (Yang, et al., Blood 91, 3746 (1998)). Anti-Flag monoclonal antibody (M2, Sigma) was purchased from a commercial source. A synthetic phosphotyrosine peptide (Arg-Arg-Leu-Ile-Glu-Asp-Ala-Gle-Tyr-Ala-Ala-Arg-Gly (SEQ ID NO: 3), wherein the tyrosine is phosphorylated; UBI) and DiFMUP (6, 8-difluoro-4-methylumbelliferyl phosphate, Molecular Probes) were purchased as substrates for PTPase assays.
# In vitro PTPase assays were used to determine the effects of compounds on recombinant PTPases, following established procedures using a synthetic phosphotyrosine peptide or DiFMUP as the substrate (Pathak et al., J. Imumol. 167, 3391 (2001)). Briefly, individual PTPases (0.1 μg/reaction) in 50 μL of PTPase buffer (50 mM Tris, pH 7.4) were incubated at 22° C. for 10 minutes or as indicated in the absence or presence of inhibitory compounds. Substrates (0.2 mM phosphotyrosine peptide) were then added and allowed to react at 22° C. for 18 hrs. PTPase activity of individual reactions was measured by adding 100 μL of malachite green solution (UBI) and then quantifying the amounts of free phosphate cleaved by the PTPase from the peptide substrate by spectrometry (OD660 nm). PTPase assays using DiFMUP as a substrate were conducted following a previously described procedure (Matter, et al., Biochem. Biophys. Res. Comm. 283, 1061 (2001)). Relative PTPase activities were calculated based on the formula: (PTPase activity in the presence of an inhibitory compound/PTPase activity in the absence of the compound)×100%. To assess the reversibility of PTPase inhibition, GST fusion proteins of the PTPases bound on glutathione beads (Pharmacia) were pre-incubated with cold Tris buffer (50 mM Tris, pH 7.0) or Tris buffer containing the inhibitor at 4° C. for 30 minutes. The beads were then washed three times in cold Tris buffer or not washed prior to subjecting to in vitro PTPase assays.
# [9] = tested on: GSTm8; assay: In vitro PTPase assay, GSTm8; type: biochemical; details: 3-4 μg/ml or 10-100 μg/ml
# [10] = target: T5, MKP1 (Homo sapiens, UniProt P28562); assay: In vitro PTPase assay, GST/MKP1 fusion protein; type: biochemical
# T5 construct: a pGEX construct containing the coding region of MKP1 cDNA derived by RT-PCR; made in house; host or cells: DH5a bacteria (E. coli)
# T5 sequence (P28562 1-367): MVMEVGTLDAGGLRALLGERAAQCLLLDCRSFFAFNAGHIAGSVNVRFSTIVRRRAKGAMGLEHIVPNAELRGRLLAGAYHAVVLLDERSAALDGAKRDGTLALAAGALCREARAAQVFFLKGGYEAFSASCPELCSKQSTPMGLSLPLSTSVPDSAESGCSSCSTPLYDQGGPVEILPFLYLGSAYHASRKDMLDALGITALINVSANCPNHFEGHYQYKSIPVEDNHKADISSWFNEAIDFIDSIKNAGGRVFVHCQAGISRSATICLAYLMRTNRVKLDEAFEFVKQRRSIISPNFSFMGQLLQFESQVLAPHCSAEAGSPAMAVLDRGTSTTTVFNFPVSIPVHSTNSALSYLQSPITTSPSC
# [11] = tested on: NB4 cells; assay: NB4 cell differentiation (NBT reduction, CD11b); type: cell-based, human
# Description: as §1
# [12] = sodium stibogluconate 400 μg/ml, GM-CSF 25 ng/ml, ATRA
# T3 sequence (Q12974 whole entry): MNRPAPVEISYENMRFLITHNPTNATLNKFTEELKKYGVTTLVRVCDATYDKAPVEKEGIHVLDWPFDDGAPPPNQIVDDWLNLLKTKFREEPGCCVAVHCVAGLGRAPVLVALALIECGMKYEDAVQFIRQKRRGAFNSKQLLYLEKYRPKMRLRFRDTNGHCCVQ
# T2 sequence (Q93096 whole entry): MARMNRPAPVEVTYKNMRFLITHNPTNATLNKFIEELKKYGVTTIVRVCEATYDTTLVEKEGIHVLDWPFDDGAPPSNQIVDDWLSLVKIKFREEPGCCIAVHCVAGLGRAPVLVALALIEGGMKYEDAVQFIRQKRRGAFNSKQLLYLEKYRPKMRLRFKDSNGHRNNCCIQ
# T4 sequence (O75365 whole entry): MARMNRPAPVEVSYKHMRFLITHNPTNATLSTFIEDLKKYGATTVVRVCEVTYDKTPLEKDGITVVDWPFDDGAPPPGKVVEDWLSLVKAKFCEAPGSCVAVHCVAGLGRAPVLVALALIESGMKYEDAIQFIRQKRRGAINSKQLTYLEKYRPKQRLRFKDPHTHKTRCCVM
# T1 sequence (P29351 whole entry, the tested form may be a part): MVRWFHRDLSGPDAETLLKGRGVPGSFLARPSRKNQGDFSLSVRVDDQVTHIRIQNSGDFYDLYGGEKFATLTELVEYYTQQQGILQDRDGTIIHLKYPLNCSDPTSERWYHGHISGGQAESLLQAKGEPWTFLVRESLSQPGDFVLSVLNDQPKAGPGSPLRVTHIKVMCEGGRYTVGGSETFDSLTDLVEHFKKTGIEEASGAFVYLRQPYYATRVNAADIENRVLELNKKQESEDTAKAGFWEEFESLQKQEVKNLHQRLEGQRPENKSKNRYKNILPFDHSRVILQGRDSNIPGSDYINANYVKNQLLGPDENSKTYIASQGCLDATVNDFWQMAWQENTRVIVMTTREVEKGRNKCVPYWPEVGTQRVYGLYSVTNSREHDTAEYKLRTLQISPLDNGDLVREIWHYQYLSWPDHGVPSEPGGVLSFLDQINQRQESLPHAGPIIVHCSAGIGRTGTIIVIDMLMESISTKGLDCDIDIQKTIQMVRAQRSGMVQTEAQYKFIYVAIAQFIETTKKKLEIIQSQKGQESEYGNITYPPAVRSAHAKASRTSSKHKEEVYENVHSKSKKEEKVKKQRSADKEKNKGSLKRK
compound,measurement,setting,value
"CC1=C(/C=C/C(C)=C/C=C/C(C)=C/C(=O)O)C(C)(C)CCC1 [ATRA, All-trans-retinoic acid]",cell cycle of NB4 cells,[1],arrested at GI phase
same,NBT-positive (differentiated) HL-60 cells,[2]; [12],90%
same,NBT-positive (differentiated) U937 cells,[3]; [12],72% and 73%
CC(=O)N1CCN(c2ccc(OCC3COC(Cn4ccnc4)(c4ccc(Cl)cc4Cl)O3)cc2)CC1 (centres unmarked) [ketoconazole],inhibitory activity against SHP-1,[4],no obvious inhibitory activity
same,inhibition at 40 µg/mL,"[5]; Homo sapiens, WM9, 144 h, read-out: growth inhibition of WM9 cells, single agent",67%
same,effect on IFN-alpha activity in WM9,[5]; ketoconazole 40 μg/ml,minor augmenting effect
same,"activity against WM9 cells, single agent or with IFN-alpha","[5]; ketoconazole 0.625-20 μg/ml, 6 days",no apparent activity
same,retained PRL-1 PTPase activity,[6],60-70%
same,effectiveness against PRL-2,[7],not effective
same,remaining PRL-3 PTPase activity,[8],25-40%
same,inhibitory activity against GSTm8,[9],no obvious inhibitory activity
N=C(N)c1ccc(OCCCCCOc2ccc(C(=N)N)cc2)cc1 [pentamidine],inhibitory activity against SHP-1,[4],no obvious inhibitory activity
same,inhibition of MKP1,[10],substantial inhibition
same,"growth inhibition of WM9 cells, single agent","[5]; pentamidine 2.5-5 μg/ml, 6 days",86-97%
same,effect on IFN-alpha-induced growth inhibition of WM9,"[5]; pentamidine, most obviously at 0.625-1.25 μg/ml",augmented IFN-alpha-induced growth inhibition
same,retained PRL-1 PTPase activity,[6],70-80%
same,effectiveness against PRL-2,[7],not effective
same,remaining PRL-3 PTPase activity,[8],20-30%
same,inhibitory activity against GSTm8,[9],no obvious inhibitory activity
GM-CSF: recombinant human granulocyte/macrophage colony stimulating factor,effect on NB4 cell differentiation,[11]; GM-CSF alone,no detectable effect
same,augmentation of sodium stibogluconate-induced NB4 differentiation,[11]; GM-CSF with sodium stibogluconate,failed to augment
same,maximal increase of NBT-positive HL-60 cells,[2]; GM-CSF 25 ng/ml alone,8-10%
same,maximal increase of NBT-positive U937 cells,[3]; GM-CSF 25 ng/ml alone,8-10%
